# According to US9073880B2, “2-(2-phenylethenyl) 1,3-benzodiazepine derivatives useful for the treatment of cancer” (Yissum Research Development Company of the Hebrew …, priority 2010, dated 2015):
# Test system: human colon carcinoma HCT15 cells
# Experiment: Cell proliferation, HCT15 (Example 4)
# Type: cell-based
# Details: HCT-15, HCT15, colon cancer, compound in 2-hydroxypropyl-β-cyclodextrin
# Experimental: Human ovary cancer A2780 cells lines were seeded at a density of 5000 cells/well, human melanoma A375 cells were plated at a density of 2,500 cells/well, human colon carcinoma HCT15 cells were plated at a density of 3,000 cells/well, human prostate carcinoma PC3 cells were plated at a density of 1,500 cells/well, human breast carcinoma MCF7 cells were plated at a density of 5,000 cells/well, human breast carcinoma MDA MB 468 cells were plated at a density of 6,000 cells/well, human myeloma U266, RPMI8226 and CAG cells were plated at a density of 10,000 cells/well. All cells were plated in 96-well plates in 90 μl growth medium containing 10% FCS, 100 units/ml penicillin and 100 μg/ml streptomycin. Compound 3 was added a day later in […] of 1% DMSO in DDW to obtain final concentrations of 0, 0.1, 0.3, 1, 3, and 10 μM. The final concentration of DMSO (0.1% DMSO) was kept constant in all samples. […] The optical density values were read at 630 nm in ELISA plate reader. Non-adhered cells were exposed to WST-1 reagent for 5 hours following 72 hours treatment with the inhibitors, and optical density values were read at 630 nm in ELISA plate reader. The data was analyzed in Microsoft Excel, using the vehicle control as 100% proliferation. […]
row,Compound,IC50 [nM]
1,O=c1c(O)cc2cnc(/C=C/c3cc(O)c(O)c(Br)c3)sc-2c1O [Compound 3],700
2,O=c1c(O)cc2cnc(/C=C/c3ccc(O)c(O)c3Br)sc-2c1O [Compound 5],900
